Results from patent publication US20120101046A1, “PROPHYLACTIC OR THERAPEUTIC AGENT FOR RETINAL DISEASE AND METHOD FOR PROPHYLAXIS OR THERAPY OF RETINAL DISEASE USING JNK (C-JUN AMINO-TERMINAL KINASE) - INHIBITORY PEPTIDE, AND USE OF THE PEPTIDE” (priority 2009, published 2012).
Like-named read-outs stand apart in the source and are kept apart here. Non-standard residues stand in square brackets, D forms with d. Residues, ends and D or L forms follow the SMILES beside them.

Legend:
[1] = tested on: spermidine-induced retinal degeneration model; experiment: Spermidine-induced retinal degeneration model, ERG (a-wave) measurement; type: in vivo; conditions: rats, intravitreal
Source text: Therefore, a spermidine-induced retinal degeneration model is used as a model for evaluating therapeutic agents for diseases involving retinal pigment epithelial damage, such as atrophic AMD (Invest. Ophthalmol. Vis. Sci., 48 (1), 455-463 (2007) (NPL 1); Invest. Ophthalmol. Vis. Sci. 51, ARVO E-abstract 3644 (2010); etc.). Thus, an effect of the JNK-inhibitory peptide of the present invention on photoreceptor cell damage caused by retinal pigment epithelial damage was investigated using the aforementioned model, and then compared with that obtained by the representative JNK-inhibitor, SP600125.
To a control group, 10 μL of Dulbecco PBS was administered. To a vehicle-administered group, 10 μL of a 2 mM solution of spermidine dissolved in Dulbecco PBS was administered. To a peptide A-administered group, a 4 mM solution of spermidine dissolved in Dulbecco PBS was mixed with 0.6 mg/mL peptide A dissolved in Dulbecco PBS to give a 1:1 mixture, and 10 μL of the solution was administered into the vitreous cavity. To an SP600125-administered group, spermidine was dissolved in a 0.3 mg/mL solution of SP600125 dissolved in Dulbecco PBS to give a concentration of 2 mM, and 10 μL of the solution was administered into the vitreous cavity. As spermidine, “Spermidine, Trihydrochloride” (Cat. No. 56766), purchased from Calbiochem, was used. […] As SP600125, “SP600125” (Cat. No. S5567-50 MG), purchased from Sigma Aldrich, was used.
Suppression ratios against reduction in ERG amplitude were subsequently calculated using an equation 1 shown below.
Suppression ratio against reduction in ERG amplitude (%)=((Ex−Ev)/(Ec−Ev))×100, [Equation 1]

[2] = tested on: laser-induced rat choroidal neovascularization model; experiment: Laser-induced rat choroidal neovascularization model, fluorescent fundus angiography; type: in vivo; conditions: rats, intravitreal, 3 μg/eye, day 7 after photocoagulation
Experimental: As a pharmacological test model for investigating an inhibitory effect on choroidal neovascularization, a laser-induced choroidal neovascularization model is widely used (Folia Ophthalmologica Japonica, 45, 853-856 (1994)).
Photocoagulation was subsequently performed using a krypton laser photocoagulator (manufactured by NIDEK, a multicolor laser photocoagulator MC-7000). With focusing laser beam on the deep retinal layers, photocoagulation was conducted in the posterior portion of the ocular fundus at 8 spots per eye in a dispersed manner, while avoiding thick retinal blood vessels. After photocoagulation, fundus photography was performed to identify the laser-irradiated sites.
To a vehicle-administered group, 5 μL of physiological saline was administered.
Subsequently, 0.1 mL of a 10% fluorescein sodium solution was injected via the tail vein, and fluorescent fundus angiography (manufactured by Kowa, Fundus Camera Kowa PROIII) was performed. In fluorescent fundus angiography, spots at which fluorescence exposure was not observed was determined as negative (without neovascularization), and spots at which fluorescence exposure was observed were determined as positive (with neovascularization). Moreover, when there were two photocoagulation sites at which slight fluorescence exposure was observed, these photocoagulation sites were determined as positive (with neovascularization). […]

[3] = tested on: tunicamycin-induced rat photoreceptor cell damage model; conditions: rats, intravitreal, 2.7 μg/eye, 7 days after tunicamycin administration
Experimental: Such a model was thus used to evaluate the usefulness of the JNK-inhibitory peptide of the present invention against photoreceptor cell damage.
General anesthesia was induced in rats by intramuscular administration of 1 mL/kg of a mixture (7:1) of a 5% (W/V) ketamine hydrochloride injection solution and a 2% xylazine hydrochloride injection solution. A 0.5% (W/V) tropicamide-0.5% phenylephrine hydrochloride ophthalmic solution was instilled into their eyes to cause dilation of the pupils. Under conditions that ocular fundus is visualized, a microsyringe (25 μL volume, Hamilton) fitted with a 33 G needle was used and inserted into the vitreous cavity. To a control group, 54 of a mixture (1:9) of dimethyl sulfoxide and physiological saline was administered. […]
After 7 days from the administration of tunicamycin, general anesthesia was induced in the rats under dark adaptation by intramuscular administration of 1 mL/kg of a mixture (7:1) of a 5% (W/V) ketamine hydrochloride injection solution and a 2% xylazine hydrochloride injection solution. […] Then, using an electroretinogram (ERG) measurement apparatus (manufactured by Tomey Corporation, portable ERG&VEP LE-3000), ERGs (a-wave) were measured. Suppression ratio against reduction in ERG amplitude was subsequently calculated using an equation 4 shown below. […]

[4] = 3 μg/eye, 13 days after spermidine administration

| SMILES | damage suppression effect in the spermidine model [1] | Suppression ratio against Reduction in ERG (a-Wave) amplitude (%) [1, 4] [%] | aggravated the reduction in ERG amplitude [1, 4] | Suppression Ratio (%) of Choroidal Neovascularization Development [2] [%] | Suppression Ratio (%) of Choroidal Neovascularization Development ([2]; listed as peptide A) | Suppression ratio against Reduction in ERG (a-Wave) amplitude (%) ([1]; 3 μg/eye, 13 days after spermidine administration, listed as peptide A) | Suppression ratio against Reduction in ERG (a-Wave) amplitude (%) [3] [%] | Suppression ratio against Reduction in ERG (a-Wave) amplitude (%) ([3]; listed as peptide A) |
| --- | --- | --- | --- | --- | --- | --- | --- | --- |
| Oc1c2ccccc2c2c3c(cccc13)N=N2 [SP600125] | no damage suppression effect | −17.6 | approximately 18% | – | – | – | – | – |
| CC(C)C[C@@H](NC(=O)[C@@H](CC(N)=O)NC(=O)[C@@H](CC(C)C)NC(=O)[C@H](NC(=O)[C@H](NC(=O)[C@H]1CCCN1C(=O)[C@@H](CCCNC(=N)N)NC(=O)[C@@H](CCCCN)NC(=O)[C@H]1CCCN1C(=O)[C@@H](CCCNC(=N)N)NC(=O)[C@H]1CCCN1C(=O)[C@H]1CCCN1C(=O)[C@@H](CCCNC(=N)N)NC(=O)[C@@H](CCCNC(=N)N)NC(=O)[C@@H](CCCNC(=N)N)NC(=O)[C@@H](CCC(N)=O)NC(=O)[C@@H](CCCNC(=N)N)NC(=O)[C@@H](CCCNC(=N)N)NC(=O)[C@@H](CCCCN)NC(=O)[C@@H](CCCCN)NC(=O)[C@@H](CCCNC(=N)N)NC(=O)CN)[C@H](C)O)[C@H](C)O)C(=O)N[C@H](Cc1ccccc1)C(=O)N1CCC[C@@H]1C(=O)N[C@H](CCC(N)=O)C(=O)N[C@@H](C(=O)N1CCC[C@@H]1C(=O)N[C@H](CCCNC(=N)N)C(=O)N[C@H](CO)C(=O)N[C@H](CCC(N)=O)C(=O)N[C@H](CC(=O)O)C(=O)O)C(C)C [Peptide A] (H-G[dR][dK][dK][dR][dR][dQ][dR][dR][dR][dP][dP][dR][dP][dK][dR][dP][dT][dT][dL][dN][dL][dF][dP][dQ][dV][dP][dR][dS][dQ][dD]-OH) | – | 72.7 | – | 14.3 | approximately 14% | approximately 73% | 50.0 | approximately 50% |
